Values quoted from earlier work as cited in article PMC12930396, “Positive modulators of N-methyl-D-aspartate receptor: structure–activity relationship study on steroidal C-17 and C-20 oxime ethers” (RSC Advances, 2026).
Structures can show the parent of a compound that is named as a salt.

Experiments:
[1] = biological target: T1, GluN1/GluN2B receptors (Rattus norvegicus, UniProt P35439+Q00960); design: method as in PMID 29708744; conditions: reference compound PES; cited from earlier work
T1 construct: expressed in transfected cells; host or cells: HEK293 cells (ATCC No. CRL-1573)
T1 sequence (Q00960 27-1482, other chains not shown): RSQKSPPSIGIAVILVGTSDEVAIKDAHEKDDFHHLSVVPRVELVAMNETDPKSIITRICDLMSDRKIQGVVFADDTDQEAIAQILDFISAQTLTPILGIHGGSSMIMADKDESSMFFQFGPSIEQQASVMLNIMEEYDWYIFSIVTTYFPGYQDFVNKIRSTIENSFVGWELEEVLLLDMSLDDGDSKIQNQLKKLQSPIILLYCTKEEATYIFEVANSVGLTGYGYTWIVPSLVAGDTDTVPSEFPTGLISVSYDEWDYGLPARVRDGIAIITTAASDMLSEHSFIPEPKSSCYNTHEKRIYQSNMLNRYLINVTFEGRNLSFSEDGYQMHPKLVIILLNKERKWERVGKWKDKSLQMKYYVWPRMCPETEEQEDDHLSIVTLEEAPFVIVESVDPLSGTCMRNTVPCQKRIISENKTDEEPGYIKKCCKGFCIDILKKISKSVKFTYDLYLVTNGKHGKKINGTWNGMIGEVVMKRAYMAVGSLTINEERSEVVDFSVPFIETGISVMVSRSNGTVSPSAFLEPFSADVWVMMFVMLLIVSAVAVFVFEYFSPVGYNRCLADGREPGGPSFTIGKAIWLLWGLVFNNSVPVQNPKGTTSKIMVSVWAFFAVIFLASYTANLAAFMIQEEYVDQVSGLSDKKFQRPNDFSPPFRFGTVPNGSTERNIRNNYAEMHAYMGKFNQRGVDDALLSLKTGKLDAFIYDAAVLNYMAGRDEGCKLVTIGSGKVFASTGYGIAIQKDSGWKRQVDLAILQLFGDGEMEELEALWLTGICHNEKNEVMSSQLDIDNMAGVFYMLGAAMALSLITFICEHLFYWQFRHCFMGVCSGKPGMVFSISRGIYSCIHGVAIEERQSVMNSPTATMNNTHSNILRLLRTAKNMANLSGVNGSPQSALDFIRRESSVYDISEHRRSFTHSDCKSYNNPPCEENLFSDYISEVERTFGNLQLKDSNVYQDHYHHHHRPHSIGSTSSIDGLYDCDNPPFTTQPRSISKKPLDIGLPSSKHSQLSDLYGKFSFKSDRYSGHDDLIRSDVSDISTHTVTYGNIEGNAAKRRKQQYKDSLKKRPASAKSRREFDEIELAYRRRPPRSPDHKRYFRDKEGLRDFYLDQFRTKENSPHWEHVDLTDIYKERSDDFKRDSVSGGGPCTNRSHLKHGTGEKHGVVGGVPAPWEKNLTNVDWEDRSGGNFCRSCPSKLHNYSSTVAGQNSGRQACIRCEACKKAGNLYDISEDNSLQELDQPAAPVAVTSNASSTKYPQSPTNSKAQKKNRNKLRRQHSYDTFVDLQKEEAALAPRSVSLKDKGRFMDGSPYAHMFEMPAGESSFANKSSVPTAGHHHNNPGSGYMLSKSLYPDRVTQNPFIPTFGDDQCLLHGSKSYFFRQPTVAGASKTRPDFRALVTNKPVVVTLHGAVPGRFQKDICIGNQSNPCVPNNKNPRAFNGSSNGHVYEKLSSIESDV

[2] = tested on: NMDA receptors; conditions: C-17 ketone steroids; cited from earlier work

| Molecule | E max ± SEM [1] | h ± SEM (apparent Hill coefficient) [1] | Activity at NMDARs [2] |
| --- | --- | --- | --- |
| 20-oxo-pregn-5-en-3β-yl sulfate [PES] | 116 ± 10% | 1.5 ± 0.1 | – |
| C[C@]12CC[C@H](OS(=O)(=O)O)CC1=CCC1C2CC[C@]2(C)C(=O)CCC12 (stereo partly shown) [dehydroepiandrosterone sulfate] | – | – | inactive |
| C[C@]12CC[C@H](O)CC1=CC[C@@H]1[C@@H]2CC[C@]2(C)C(=O)CC[C@@H]12 [dehydroepiandrosterone, 3β-hydroxy-androst-5-en-17-one] | – | – | inactive |
